Experimental data taken from patent US11149036B2, “3-(1H-pyrazol-4-yl)pyridine allosteric modulators of the M4 muscarinic acetylcholine receptor” (Merck Sharp & Dohme Corp., priority 2017, dated 2021).

Target: T1, human M4 muscarinic acetylcholine receptor (Homo sapiens, UniProt P08173)
T1 construct: expressed in transfected cells; host or cells: CHO-K1
T1 sequence (P08173 1-479): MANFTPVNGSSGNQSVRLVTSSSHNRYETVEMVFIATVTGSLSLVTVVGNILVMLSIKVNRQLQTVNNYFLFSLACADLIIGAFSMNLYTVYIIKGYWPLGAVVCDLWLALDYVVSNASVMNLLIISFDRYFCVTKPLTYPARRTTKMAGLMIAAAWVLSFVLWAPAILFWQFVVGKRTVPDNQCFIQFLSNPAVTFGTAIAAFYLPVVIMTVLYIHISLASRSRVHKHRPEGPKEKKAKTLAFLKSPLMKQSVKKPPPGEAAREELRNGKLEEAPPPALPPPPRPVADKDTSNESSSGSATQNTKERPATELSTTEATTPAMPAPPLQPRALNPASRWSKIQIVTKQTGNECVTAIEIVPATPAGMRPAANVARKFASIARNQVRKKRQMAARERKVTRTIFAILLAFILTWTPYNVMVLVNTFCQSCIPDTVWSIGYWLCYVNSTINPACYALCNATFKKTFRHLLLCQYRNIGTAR
Assay: human FLIPR-based M4 PAM assay (CHO-K1 cells with human M4 receptor and Gaqi5, calcium dye fluorescence)
Type: cell-based
Conditions: inflection point (IP) of dose response curve, acetylcholine added at 20% of maximum response, read-out: M4 FLIPPR Hu IP
How it was run: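 CHO-K1 cells stably expressing human M4 with chimeric Gaqi5, calcium-dye loaded ~1 h at 37° C; compound added at increasing concentrations 4 min before acetylcholine at an EC20 concentration (sometimes a further EC70 addition).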

CC1(Cn2cc(-c3ccc(C#N)nc3-c3ccn4ncnc4c3)cn2)CCCC1 [Example 75, 6-([1,2,4]triazolo[1,5-a]pyridin-7-yl)-5-(1-((1-methylcyclopentyl)methyl)-1H-pyrazol-4-yl)picolinonitrile]
EC50: 31 nM

N#Cc1ccc(-c2nc(C#N)ccc2-c2cnn(CC3CCCC3)c2)cc1 [Example 160, 6-(4-cyanophenyl)-5-(1-(cyclopentylmethyl)-1H-pyrazol-4-yl)picolinonitrile]
EC50: 48 nM

Cc1ccc(-c2cnn(CC3(F)CCCC3)c2)c(-c2ccc3cc(C(F)(F)F)cnc3c2)n1 [Example 14, 7-(3-(1-((1-fluorocyclopentyl)methyl)-1H-pyrazol-4-yl)-6-methylpyridin-2-yl)-3-(trifluoromethyl)quinoline]
EC50: 30 nM

Cc1cc(-c2cnn(CC3(F)CCCC3)c2)c(-c2ccn3cnnc3c2)nc1Cl [Example 118, 7-(6-chloro-3-(1-((1-fluorocyclopentyl)methyl)-1H-pyrazol-4-yl)-5-methylpyridin-2-yl)-[1,2,4]triazolo[4,3-a]pyridine]
EC50: 48 nM

Cc1nc2cc(-c3nc(C#N)ccc3-c3cnn(CC4(C)CCCC4)c3)cnc2o1 [Example 80, 5-(1-((1-methylcyclopentyl)methyl)-1H-pyrazol-4-yl)-6-(2-methyloxazolo[5,4-b]pyridin-6-yl)picolinonitrile]
EC50: 65 nM

Fc1cnc(-c2ccc3cccnc3c2)c(-c2cnn(CC3(F)CCCC3)c2)c1 [Example 95, 7-(5-fluoro-3-(1-((1-fluorocyclopentyl)methyl)-1H-pyrazol-4-yl)pyridin-2-yl) quinoline]
EC50: 80 nM

N#Cc1ccc(-c2cnn(CC3CCC(F)C3)c2)c(-c2ccc3cccnc3c2)n1 (single isomer, unassigned) [compound 146, 5-(1-(((1R,3S) or (1S,3R)-3-fluoro-cyclopentyl)methyl)-1H-pyrazol-4-yl)-6-(quinolin-7-yl)picolinonitrile]
EC50: 50 nM

N#Cc1ccc(-c2cnn(CC3(F)CCCC3)c2)c(-c2ccn3cc(C(F)(F)F)nc3c2)n1 [Example 51, 5-(1-((1-fluorocyclopentyl)methyl)-1H-pyrazol-4-yl)-6-(2-(trifluoromethyl)imidazo [1,2-a]pyridin-7-yl)picolinonitrile]
EC50: 22 nM

Cc1cn2ccc(-c3nc(Cl)ccc3-c3cnn(CC4(C)CCCC4)c3)cc2n1 [Example 115, 7-(6-chloro-3-(1-((1-methylcyclopentyl)methyl)-1H-pyrazol-4-yl)pyridin-2-yl)-2-methylimidazo[1,2-a] pyridine]
EC50: 21 nM

Cc1ccc(-c2cnn(CC3(C)CCCC3)c2)c(-c2ccc3cn(C)nc3c2)n1 [Example 34, 2-methyl-6-(6-methyl-3-(1-((1-methylcyclopentyl)methyl)-1H-pyrazol-4-yl)pyridin-2-yl)-2H-indazole]
EC50: 57 nM

Cc1ccc(-c2cnn(CC3(F)CCCC3)c2)c(-c2ccc3c(c2)C(=O)N(C)C3)n1 [Example 1, 6-(3-(1-((1-fluorocyclopentyl)methyl)-1H-pyrazol-4-yl)-6-methylpyridin-2-yl)-2-methylisoindolin-1-one]
EC50: 17 nM

Cn1cnc2cc(-c3nc(C(F)F)ccc3-c3cnn(C[C@H]4CC[C@H](F)C4)c3)ccc21 [Example 120, 5-(6-(difluoromethyl)-3-(1-(((1S,3S)-3-fluorocyclopentyl)methyl)-1H-pyrazol-4-yl)pyridin-2-yl)-1-methyl-1H-benzo[d] imidazole]
EC50: 44 nM

Cc1cn2ccc(-c3nc(C#N)c(F)cc3-c3cnn(CC4(C)CCCC4)c3)cc2n1 [Example 88, 3-fluoro-5-(1-((1-methylcyclopentyl)methyl)-1H-pyrazol-4-yl)-6-(2-methylimidazo [1,2-a]pyridin-7-yl)picolinonitrile]
EC50: 24 nM

COc1cc2ccc(-c3nc(C)c(C)cc3-c3cnn(CC4(C)CCCC4)c3)cc2nn1 [Example 157, 7-(5,6-dimethyl-3-(1-((1-methylcyclopentyl)methyl)-1H-pyrazol-4-yl)pyridin-2-yl)-3-methoxycinnoline]
EC50: 7 nM

N#Cc1ccc(-c2cnn(CC3(F)CCCC3)c2)c(-c2cnc3oc(C4CC4)nc3c2)n1 [Example 53, 6-(2-cyclopropyloxazolo[5,4-b]pyridin-6-yl)-5-(1-((1-fluorocyclopentyl)methyl)-1H-pyrazol-4-yl)picolinonitrile]
EC50: 76 nM

Cc1ccc(-c2cnn(CC3C[C@@H](F)[C@@H](F)C3)c2)c(-c2ccc3cccnc3c2)n1 (mixture of isomers) [Example 27, 7-(3-(1-(((3R,4S and 3S,4R)-3,4-difluorocyclopentyl)methyl)-1H-pyrazol-4-yl)-6-methylpyridin-2-yl)quinoline (+/−)]
EC50: 64 nM

Cn1cnc2cc(-c3nc(F)c(F)cc3-c3cnn(CC4(C)CCCC4)c3)cnc21 [compound 138, 6-(5,6-difluoro-3-(1-((1-methylcyclopentyl)methyl)-1H-pyrazol-4-yl)pyridin-2-yl)-3-methyl-3H-imidazo[4,5-b]pyridine]
EC50: 70 nM

Cn1cnc2cc(-c3nc(C#N)ccc3-c3cnn(CC4C[C@H](F)[C@@H](F)C4)c3)ccc21 [Example 72, 5-(1-(((3S,4S)-3,4-difluorocyclopentyl)methyl)-1H-pyrazol-4-yl)-6-(1-methyl-1H-benzo[d]imidazol-5-yl)picolinonitrile]
EC50: 41 nM

FC(F)c1cn2ccc(-c3ncc(Cl)cc3-c3cnn(CC4(F)CCCC4)c3)cc2n1 [Example 111, 7-(5-chloro-3-(1-((1-fluorocyclopentyl)methyl)-1H-pyrazol-4-yl)pyridin-2-yl)-2-(difluoromethyl)imidazo [1,2-a]pyridine]
EC50: 38 nM

Cn1cnc2cc(-c3nc(C#N)c(F)cc3-c3cnn(CC4(C)CCCC4)c3)ccc21 [Example 86, 3-fluoro-6-(1-methyl-1H-benzo[d]imidazol-5-yl)-5-(1-((1-methylcyclopentyl)methyl)-1H-pyrazol-4-yl)picolinonitrile]
EC50: 18 nM

Cn1cnc2cc(-c3nc(C#N)c(F)cc3-c3cnn(CC4(C)CCCC4)c3)cnc21 [Example 85, 3-fluoro-6-(3-methyl-3H-imidazo[4,5-b]pyridin-6-yl)-5-(1-((1-methylcyclopentyl)methyl)-1H-pyrazol-4-yl)picolinonitrile]
EC50: 37 nM

Cc1ccc(-c2cnn(CC3(F)CCCC3)c2F)c(-c2ccc3cccnc3c2)n1 [Example 22, 7-(3-(5-fluoro-1-((1-fluorocyclopentyl)methyl)-1H-pyrazol-4-yl)-6-methylpyridin-2-yl)quinoline]
EC50: 15 nM

CC1(Cn2cc(-c3cc(F)c(C#N)nc3-c3ccn4cc(CF)nc4c3)cn2)CCCC1 [compound 136, 3-fluoro-6-(2-(fluoro-methyl)imidazo[1,2-a]pyridin-7-yl)-5-(1-((1-methylcyclopentyl)meth-yl)-1H-pyrazol-4-yl)picolinonitrile]
EC50: 19 nM

Cc1ccc(-c2cnn(CC3(F)CCCC3)c2)c(-c2cnc3c(c2)ncn3C)n1 [Example 18, 6-(3-(1-((1-fluorocyclopentyl)methyl)-1H-pyrazol-4-yl)-6-methylpyridin-2-yl)-3-methyl-3H-imidazo[4,5-b]pyridine]
EC50: 187 nM

Cc1ccc(-c2cnn(C[C@@H]3CC[C@H](F)C3)c2)c(-c2ccc3cccnc3c2)n1 (single isomer, unassigned) [Example 133, 7-(3-(1-(((1R,3S) or (1S,3R)-3-fluorocyclopentyl)methyl)-1H-pyrazol-4-yl)-6-methylpyridin-2-yl)quinoline]
EC50: 17 nM

CC1(Cn2cc(-c3ccc(C#N)nc3-c3ccn4cc(CO)nc4c3)cn2)CCCC1 [Example 82, 6-(2-(hydroxymethyl)imidazo [1,2-a]pyridin-7-yl)-5-(1-((1-methylcyclopentyl)methyl)-1H-pyrazol-4-yl)picolinonitrile]
EC50: 20 nM

Cc1ccc(-c2cnn(CC3(F)CCCC3)c2F)c(-c2ccc3c(c2)ncn3C)n1 [Example 24]
EC50: 70 nM

Cn1nnc2cc(-c3nc(C#N)ccc3-c3cnn(CC4(C)CCCC4)c3)ccc21 [Example 124, 6-(1-methyl-1H-benzo[d][1,2,3]triazol-5-yl)-5-(1-((1-methylcyclopentyl)methyl)-1H-pyrazol-4-yl)picolinonitrile]
EC50: 27 nM

N#Cc1ccc(-c2cnn(CC3(F)CCCC3)c2)c(-c2ccc3conc3c2)n1 [Example 62, 6-(benzo[c]isoxazol-6-yl)-5-(1-((1-fluorocyclopentyl)methyl)-1H-pyrazol-4-yl)picolinonitrile]
EC50: 62 nM

Cc1ccc(-c2cnn(CC3(F)CCCC3)c2)c(-c2ccc3c(c2)C(=O)N(CC2CC2)C3)n1 [Example 19, 2-(cyclopropylmethyl)-6-(3-(1-((1-fluorocyclopentyl)methyl)-1H-pyrazol-4-yl)-6-methylpyridin-2-yl)isoindolin-1-one]
EC50: 20 nM

Cc1nc(-c2cnc3c(c2)ncn3C)c(-c2cnn(CC3(C)CCCC3)c2)cc1C#N [Example 106, 2-methyl-6-(3-methyl-3H-imidazo[4,5-b]pyridin-6-yl)-5-(1-((1-methylcyclopentyl)methyl)-1H-pyrazol-4-yl)nicotinonitrile]
EC50: 82 nM

CC1(Cn2cc(-c3ccc(C#N)nc3-c3ccc4ccc(Cl)nc4c3)cn2)CCCC1 [Example 126, 6-(2-chloro-quinolin-7-yl)-5-(1-((1-methylcyclo-pentyl)methyl)-1H-pyrazol-4-yl)picolinonitrile]
EC50: 78 nM
